Source: ChEMBL document CHEMBL1141639, “Synthesis and heme-binding correlation with antimalarial activity of 3,6-bis-(omega-N,N-diethylaminoamyloxy)-4,5-difluoroxanthone” (Bioorg Med Chem, 2008)

What was measured:
Plasmodium falciparum [1] = assay: Antimalarial activity against Plasmodium falciparum D6 in MSF assay; assay type: functional, organism-based
Plasmodium falciparum [2] = assay: Antimalarial activity against Plasmodium falciparum W2 in MSF assay; assay type: functional, organism-based
[3] = Binding affinity to heme in aqueous solution

| Compound | IC50 (Plasmodium falciparum [1]) [nM] | IC50 (Plasmodium falciparum [2]) [nM] | Ka [3] |
| --- | --- | --- | --- |
| C=CC1CN2CC[C@H]1C[C@H]2[C@H](O)c1ccnc2ccc(OC)cc12 (single isomer, unassigned) [QUININE] | 11 | 60 | 0.2 10^5/M |
| CCN(CC)CCCCCOc1ccc2c(=O)c3ccc(OCCCCCN(CC)CC)c(F)c3oc2c1F | 93 | 150 | 0.6 10^5/M |
| CCN(CC)CCCCCOc1ccc2c(=O)c3ccc(OCCCCCN(CC)CC)cc3oc2c1 | 180 | 120 | 8.2 10^5/M |
| O[C@@H](c1cc(C(F)(F)F)nc2c(C(F)(F)F)cccc12)[C@H]1CCCCN1 [MEFLOQUINE] | 5.9 | 0.7 | 0.1 10^5/M |
